What was measured:
[1] = system: windgrass; assay: Test C postemergence herbicide test; type: in vivo, Apera spica-venti; conditions: postemergence, scale 0 to 100
Summary of the method: (§1)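 Plants were grown to the 1- to 4-leaf stage (2–18 cm) and then treated postemergence, or grown to the 2-leaf stage for the flooded paddy test. They were held in a greenhouse for 12 to 14 days and then scored by eye against controls, where 0 is no effect and 100 is complete control.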

[2] = system: pigweed; assay: Test B pre-/postemergence herbicide test; type: in vivo, Amaranthus retroflexus
Summary of the method: (§2)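 Plants compared with untreated controls 13–15 days post-treatment and given a visual 0–100 injury score. Applications: preemergence to seeds; postemergence at 1- to 4-leaf (2–18 cm); paddy species flooded, 2-leaf stage. Vehicle non-phytotoxic, surfactant included.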

[3] = system: velvetleaf; assay: Test B pre-/postemergence herbicide test; type: in vivo, Abutilon theophrasti
Summary of the method: as §2

[4] = system: wheat; assay: Test B postemergence herbicide test; type: in vivo, Triticum aestivum; set-up: key to Wheat plant response rating: 0 = no effect, 100 = complete control
Summary of the method: (§3)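 Greenhouse test; postemergence application to plants at 1–4 leaves (2–18 cm); paddy species at 2 leaves; evaluated visually vs controls at 13–15 days; scale 0–100 (100 = complete control).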

[5] = system: morningglory; assay: Test B pre-/postemergence herbicide test; type: in vivo, Ipomoea coccinea
Summary of the method: (§4)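 Pre: seeds sown, then sprayed. Post: 1–4-leaf plants (2–18 cm) sprayed at the same time. Paddy: flooded, treated at 2-leaf stage. Formulation: non-phytotoxic solvent with surfactant. Greenhouse 13–15 days; visual 0–100 score relative to controls.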

[6] = system: ducksalad; assay: Test B flooded paddy test; type: in vivo, Heteranthera limosa; conditions: 1000 g ai/ha, scale 0 to 100 (0 no effect, 100 complete control)
Summary of the method: (§5)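 Read-out: visual comparison with controls, scored 0 to 100, where 100 means complete control and 0 no effect. Formulated chemicals were applied postemergence to plants 2–18 cm tall (1- to 4-leaf), or to flooded-paddy plants at the 2-leaf stage, then held 13 to 15 days under glass.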

[7] = system: barnyardgrass; assay: Test B pre-/postemergence herbicide test; type: in vivo, Echinochloa crus-galli; conditions: for Barnyardgrass plant response rating: Postemergence, scale 0 (no effect) to 100 (complete control)
Summary of the method: as §4

[8] = system: winter barley; assay: Test C postemergence herbicide test; type: in vivo, Hordeum vulgare
Summary of the method: as §1

[9] = system: barnyardgrass; assay: Test B flooded paddy test; type: in vivo, Echinochloa crus-galli; conditions: 1000 g ai/ha, scale 0 to 100 (0 no effect, 100 complete control)
Summary of the method: as §5

[10] = system: wild oat; assay: Test B postemergence herbicide test; type: in vivo, Avena fatua
Summary of the method: as §3

[11] = system: green foxtail; assay: Test C postemergence herbicide test; type: in vivo, Setaria viridis
Summary of the method: as §1

[12] = system: giant foxtail; assay: Test B pre-/postemergence herbicide test; type: in vivo, Setaria faberi
Summary of the method: as §2

[13] = system: cocklebur; assay: Test B pre-/postemergence herbicide test; type: in vivo, Xanthium strumarium
Summary of the method: as §4

[14] = system: wheat; assay: Test C postemergence herbicide test; type: in vivo, Triticum aestivum; conditions: postemergence, scale 0 to 100
Summary of the method: as §1

[15] = system: corn; assay: Test B pre-/postemergence herbicide test; type: in vivo, Zea mays
Summary of the method: as §2

[16] = system: blackgrass; assay: Test B postemergence herbicide test; type: in vivo, Alopecurus myosuroides
Summary of the method: as §5

[17] = system: wild oat; assay: Test C postemergence herbicide test; type: in vivo, Avenafatua; conditions: postemergence, scale 0 to 100
Summary of the method: as §1

[18] = system: downy bromegrass; assay: Test C postemergence herbicide test; type: in vivo, Bromus tectorum
Summary of the method: as §1

[19] = system: lambsquarters; assay: Test B pre-/postemergence herbicide test; type: in vivo, Chenopodium album
Summary of the method: as §2

[20] = system: small flower umbrella sedge; assay: Test B flooded paddy test; type: in vivo, Cyperus difformis; conditions: 1000 g ai/ha, scale 0 to 100 (0 no effect, 100 complete control)
Summary of the method: as §5

[21] = system: canarygrass; assay: Test C postemergence herbicide test; type: in vivo, Phalaris minor
Summary of the method: as §1

[22] = system: rice; assay: Test B flooded paddy test; type: in vivo, Oryza sativa; conditions: 1000 g ai/ha, scale 0 to 100 (0 no effect, 100 complete control)
Summary of the method: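 Formulated test chemicals went onto postemergence plants measuring 2 to 18 cm, at one to four leaves. For the paddy assay, species had reached two leaves. Scoring took place 13–15 days later by eye, relative to untreated plants, using 0 for no effect up to 100 for full control.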

[23] = system: Surinam grass; assay: Test B pre-/postemergence herbicide test; type: in vivo, Urochloa decumbens
Summary of the method: as §2

[24] = system: blackgrass; assay: Test C postemergence herbicide test; type: in vivo, Alopecurus myosuroides
Summary of the method: as §1

[25] = system: large crabgrass; assay: Test B pre-/postemergence herbicide test; type: in vivo, Digitaria sanguinalis
Summary of the method: as §2

[26] = system: Italian ryegrass; assay: Test C postemergence herbicide test; type: in vivo, Lolium multiflorum; conditions: postemergence, scale 0 to 100
Summary of the method: as §1

[27] = 125 g ai/ha, 0 is no effect, 100 is complete control, preemergence
[28] = Postemergence, 500 g ai/ha, scale 0 (no effect) to 100 (complete control)
[29] = postemergence, 125 g ai/ha, scale 0 to 100
[30] = Postemergence, 250 g ai/ha, scale 0 to 100, 0 no effect, 100 complete control
[31] = postemergence, 31 g ai/ha, scale 0 to 100
[32] = postemergence, 62 g ai/ha, scale 0 to 100

C=CCNC(=O)c1ccc(F)c(NC(=O)c2cc(C(C)(C)C)nn2CC)c1 [Compound 430]
90: Plant response rating (0 to 100 scale), Barnyardgrass [7, 27] | Plant response rating (0 to 100 scale), Foxtail, Giant [12, 27] | Cocklebur plant response rating [13, 28]
30: Wheat plant response rating [4, 29] | Barnyardgrass plant response rating ([7]; 125 g ai/ha) | Plant response rating, Barley, Winter ([8]; postemergence, 62 g ai/ha, scale 0 to 100 (0 no effect, 100 complete control)) | Foxtail, Giant plant response rating [12, 29] | Plant response rating, Canarygrass [21, 31] | Surinam Grass plant response rating [23, 29] | Crabgrass, Large plant response rating [25, 29]
80: Pigweed plant response rating [2, 28] | Velvetleaf plant response rating [3, 28] | Ducksalad plant response rating [6] | Barnyardgrass plant response rating [9] | Lambsquarters plant response rating [19, 28] | Sedge, Umbrella plant response rating [20] | Plant response rating (0 to 100 scale), Surinam Grass [23, 27]
25: Plant response rating, Barley, Winter [8, 31]
55: Plant response rating, Oat, Wild ([17]; 62 g ai/ha) | Plant response rating, Bromegrass, Downy [18, 30] | Plant response rating, Blackgrass [24, 29] | Plant response rating, Ryegrass, Italian ([26]; 62 g ai/ha)
10: Plant response rating (0 to 100 scale), Cocklebur [13, 27]
45: Plant response rating, Windgrass ([1]; 125 g ai/ha) | Plant response rating, Barley, Winter [8, 30] | Plant response rating, Foxtail, Green [11, 32] | Plant response rating, Wheat ([14]; 62 g ai/ha) | Plant response rating, Bromegrass, Downy [18, 31] | Plant response rating, Bromegrass, Downy [18, 32] | Plant response rating, Blackgrass [24, 31]
70: Morningglory plant response rating [5, 28] | Blackgrass plant response rating [16, 28]
60: Pigweed plant response rating [2, 29] | Velvetleaf plant response rating [3, 29] | Morningglory plant response rating [5, 29] | Plant response rating, Foxtail, Green [11, 30] | Cocklebur plant response rating [13, 29] | Plant response rating, Oat, Wild ([17]; 125 g ai/ha) | Lambsquarters plant response rating [19, 29] | Plant response rating, Canarygrass [21, 30] | Rice plant response rating [22] | Plant response rating, Ryegrass, Italian ([26]; 125 g ai/ha)
35: Plant response rating, Windgrass ([1]; 62 g ai/ha) | Plant response rating, Barley, Winter ([8]; Postemergence, 125 g ai/ha, scale 0 to 100, 0 no effect, 100 complete control)
50: Barnyardgrass plant response rating ([7]; 500 g ai/ha) | Oat, Wild plant response rating [10, 28] | Plant response rating, Foxtail, Green [11, 29] | Plant response rating, Wheat ([14]; 125 g ai/ha) | Plant response rating (0 to 100 scale), Corn [15, 27] | Plant response rating, Bromegrass, Downy [18, 29] | Plant response rating, Canarygrass [21, 29] | Plant response rating, Blackgrass [24, 32] | Crabgrass, Large plant response rating [25, 28]
20: Plant response rating (0 to 100 scale), Morningglory [5, 27] | Corn plant response rating [15, 29]
100: Plant response rating (0 to 100 scale), Pigweed [2, 27] | Wheat plant response rating ([4]; 500 g ai/ha, scale 0 to 100, 0 no effect, 100 complete control, preemergence) | Plant response rating (0 to 100 scale), Lambsquarters [19, 27] | Plant response rating (0 to 100 scale), Crabgrass, Large [25, 27]
40: Plant response rating (0 to 100 scale), Velvetleaf [3, 27] | Wheat plant response rating [4, 28] | Oat, Wild plant response rating [10, 29] | Foxtail, Giant plant response rating [12, 28] | Corn plant response rating [15, 28] | Blackgrass plant response rating [16, 29] | Plant response rating, Canarygrass [21, 32] | Surinam Grass plant response rating [23, 28]
65: Plant response rating, Blackgrass [24, 30]
